Laboratory results as given in US11236085B2, “PD-1/PD-L1 inhibitors” (Gilead Sciences, Inc., priority 2018, dated 2022).

How the values were obtained:
PD-1/PD-L1 [1] = target: T1, PD-1/PD-L1 (Homo sapiens, UniProt Q9NZQ7); test: PD-1/PD-L1 NFAT reporter assay (co-culture of aAPC-PD-L1 CHO cells and Jurkat cells overexpressing PD-1, NFAT luciferase); type: cell-based; set-up: expressed in transfected cells; host or cells: CHO cells (aAPC-PD-L1) co-cultured with Jurkat cells overexpressing PD-1; conditions: co-culture incubated for 6 hrs at 37° C.; luciferase under NFAT control
Experimental: PD-1/PD-L1 NFAT Reporter Assay
Compounds were tested in a functional co-culture reporter assay in which TCR-mediated NFAT activity is inhibited by the engagement of PD-1 with PD-L1. […] CHO cells expressing surface-bound anti-CD3 antibodies and PD-L1 (artificial antigen presenting cells, aAPC-PD-L1) were first seeded overnight. Jurkat cells overexpressing PD-1 and expressing a luciferase construct under NFAT control are diluted in RPMI assay medium (RPMI 1640 with 2% FBS), mixed with compounds, and immediately seeded on the monolayer of aAPC-PD-L1. The co-culture is then incubated for 6 hrs at 37° C. Luciferase activity is assessed by adding the ONE-Glo reagent and measuring luminescence with a plate reader. EC50 values are calculated from the fit of the dose-response curves to a four-parameter equation (Table 4).
Target sequence in this assay (Q9NZQ7 19-290): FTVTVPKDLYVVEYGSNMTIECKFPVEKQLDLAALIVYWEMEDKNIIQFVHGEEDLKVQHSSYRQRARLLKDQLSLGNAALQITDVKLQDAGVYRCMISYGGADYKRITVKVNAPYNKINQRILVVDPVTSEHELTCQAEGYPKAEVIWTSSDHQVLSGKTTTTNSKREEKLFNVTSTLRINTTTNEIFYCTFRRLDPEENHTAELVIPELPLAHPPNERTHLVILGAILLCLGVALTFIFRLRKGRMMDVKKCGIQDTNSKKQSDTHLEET

PD-L1 = target: T2, PD-L1 (Homo sapiens, UniProt Q9NZQ7); test: PD-L1/PD-L1 dimerization biochemical protein-protein interaction assay (ALPHA); conditions: 0.5 nM His tagged PD-L1 and 0.5 nM FLAG tagged PD-L1; compound induced dimerization; read-out: AC50 PDL1 Dimer 1 nM
T2 construct: determine if they can specifically dimerize the extracellular domains of PD-L1
Experimental: PD-L1/PD-L1 Dimerization Biochemical Protein-Protein Interaction Assay
Compounds were tested in biochemical protein-protein interaction assays to determine if they can specifically dimerize the extracellular domains of PD-L1. Dimerization of the proteins (His-tagged PD-L1 and FLAG-tagged PD-L1) is measured using a bead based Amplified Luminescent Proximity Homogeneous Assay (ALPHA) platform. […] Assays are performed in 25 mM Hepes (pH 7.4), 150 mM NaCl, 3.4 mM EDTA, 0.005% Tween 20, and 0.01% BSA. Final protein concentration in the assays were 0.5 nM (His tagged PD-L1) and 0.5 nM (FLAG tagged PD-L1). After an assay reaction time of 2 hours at 25° C., 20 μg/mL (final assay concentration) ALPHA assay acceptor beads (anti-His coated) were added and incubated for 60 minutes at 25° C. Binding was measured following a final 60 minute incubation with 40 μg/mL (final assay concentration) ALPHA assay donor beads (anti-FLAG coated). AC50 values were calculated from the fit of the dose-response curves to a four-parameter equation (Table 4).

PD-1/PD-L1 [2] = target: T1, PD-1/PD-L1; test: PD-1/PD-L1 biochemical protein-protein interaction assay (ALPHA); type: binding; conditions: 0.3 nM His tagged PD-L1, 2.5 nM biotinylated Fc-PD-1; 60 minutes at 25° C.; read-out: IC50 PD-L1-PD1
Experimental: PD-1/PD-L1 & CTLA/CD80 Biochemical Protein-Protein Interaction Assay
Compounds were tested in biochemical protein-protein interaction assays to determine if they can specifically block the interaction between the extracellular domains of PD-1/PD-L1 or CTLA/CD80. Binding of the protein pairs is measured using a bead based Amplified Luminescent Proximity Homogeneous Assay (ALPHA) platform. Binding of each protein pair results in proximity of the donor and acceptor beads which leads to an increase in ALPHA signal. Disruption of the protein-protein interaction with a test compound results in a decrease in ALPHA signal. Assays are performed in 25 mM Hepes (pH 7.4), 150 mM NaCl, 3.4 mM EDTA, 0.005% Tween 20, and 0.01% BSA. Final protein concentration in the assays were 0.3 nM (His tagged PD-L1), 2.5 nM (biotinylated Fc-PD-1), 1 nM (His tagged CTLA4) and 1 nM (biotinylated CD80). After an assay reaction time of 60 minutes at 25° C., binding was measured with addition of 20 μg/mL ALPHA assay acceptor beads (anti-His coated) and 20 µg/mL ALPHA assay donor beads (streptavidin coated). IC50 values were calculated from the fit of the dose-response curves to a four-parameter equation. Representative data are shown below in Table 3.
Target sequence in this assay (Q9NZQ7 19-238 limits assumed): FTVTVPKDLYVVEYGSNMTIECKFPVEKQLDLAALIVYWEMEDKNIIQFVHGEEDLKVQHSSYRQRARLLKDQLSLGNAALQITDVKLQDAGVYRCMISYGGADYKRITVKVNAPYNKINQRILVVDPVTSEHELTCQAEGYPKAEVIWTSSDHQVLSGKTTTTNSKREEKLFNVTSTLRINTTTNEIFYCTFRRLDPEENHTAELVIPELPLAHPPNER

T2 sequence (Q9NZQ7 19-238 limits assumed): as above
T2 sequence (Q9NZQ7 19-238 limits assumed): as above

Structure (SMILES) | EC50 (PD-1/PD-L1 [1]) [nM] | AC50 (PD-L1) [nM] | IC50 (PD-1/PD-L1 [2]) [nM]
COc1nc(O[C@H]2CCc3c(-c4cccc(-c5nc6c(s5)CCNC6)c4Cl)cccc32)c(C(F)(F)F)cc1CN1CC[C@@H](C(=O)O)C1 [Compound 2, (R)-1-((6-(((S)-4-(2-chloro-3-(4,5,6,7-tetrahydrothiazolo[4,5-c]pyridin-2-yl)phenyl)-2,3-dihydro-1H-inden-1-yl)oxy)-2-methoxy-5-(trifluoromethyl)pyridin-3-yl)methyl)pyrrolidine-3-carboxylic acid] | 3250 | 23 | 0.064
C[C@@](CO)(NCc1cc(Br)c(OCc2cccc(-c3cccc(-c4ccc5c(c4)CNCC5)c3Cl)c2Cl)nc1OCc1cncc(C#N)c1)C(=O)O [Compound 22] | 87 | 37.7 | 0.151
Cc1c(COc2cc(OCc3cc(C#N)cc(C#N)c3)c(CN[C@@](C)(CO)C(=O)O)cc2Cl)cccc1-c1cccc(-c2ccc3c(c2)CNCC3)c1C [Compound 8] | 90 | 42.9 | 0.293
CNC(=O)N[C@@H]1CNCc2cc(-c3cccc(-c4cccc(COc5cc(OCc6cncc(C#N)c6)c(CN[C@@](C)(CO)C(=O)O)cc5Cl)c4C)c3C)ccc21 [Compound 15] | 59 | 7.47 | 0.064
Cc1c(COc2cc(OCc3cncc(C#N)c3)c(CN[C@@](C)(CO)C(=O)O)cc2Cl)cccc1-c1cccc(-c2ccc3c(c2)NCCNC3)c1C [Compound 4] | 90 | 86.5 | 0.064
